Values of other authors as cited in US10428083B2, “Heterocyclylmethyl-thienouracile as antagonists of the adenosine-A2B-receptor” (BAYER PHARMA AKTIENGESELLSCHAFT, priority 2015, dated 2019).

Legend:
[1] = test system: prostate cancer cell lines; conditions: A2b receptor antagonist; cited from earlier work
[2] = test system: melanoma animal models; conditions: cited from earlier work

For `CCCn1c(=O)[nH]c2nc(-c3ccc(S(=O)(=O)N4CCN(c5ccc(Cl)cc5)CC4)cc3)[nH]c2c1=O` [PSB603], the “growth of several prostate cancer cell lines” value [1] is listed as “reduces the growth” and the “tumour growth and metastasis” value [2] is listed as “reduction in tumour growth and metastasis”.
